Measured values from ChEMBL document CHEMBL5247627, “1-Methyl-3-((4-(quinolin-4-yloxy)phenyl)amino)-1H-pyrazole-4-carboxamide derivatives as new rearranged during Transfection (RET) kinase inhibitors capable of suppressing resistant mutants in solvent-front regions” (Eur J Med Chem, 2022).
Calls of active or inactive are those of the source. The calls are words filed in the database; no cut-off is given here.

How the values were obtained:
[1] = Toxicity in CB17-SCID mouse xenografted with BaF3 cells expressing CCDC6-RET G810C assessed as tolerability measured at 10 to 30 mg/kg, ip qd administered for 12 days; assay type: organism-based; details: in vivo, 288 h, dose 10-30 mg/kg, time 12 day
BaF3 [2] = experiment: Antiproliferative activity against mouse BaF3 cells expressing wildtype rearranged during transfection kinase-CCDC6 incubated for 74 to 76 hrs by cell counting kit 8 method
BaF3 [3] = experiment: Antiproliferative activity against mouse BaF3 cells expressing rearranged during transfection kinase V804M-CCDC6 incubated for 74 to 76 hrs by cell counting kit 8 method
BaF3 [4] = experiment: Antiproliferative activity against mouse BaF3 cells expressing rearranged during transfection kinase G810C-CCDC6 incubated for 74 to 76 hrs by cell counting kit 8 method
BaF3 [5] = experiment: Antiproliferative activity against mouse BaF3 cells expressing rearranged during transfection kinase G810R-CCDC6 incubated for 74 to 76 hrs by cell counting kit 8 method
BaF3 [6] = experiment: Antiproliferative activity against mouse BaF3 cells expressing wildtype rearranged during transfection kinase-KIF5B incubated for 74 to 76 hrs by cell counting kit 8 method
BaF3 [7] = experiment: Antiproliferative activity against mouse BaF3 cells expressing rearranged during transfection kinase V804M-KIF5B incubated for 74 to 76 hrs by cell counting kit 8 method
BaF3 [8] = experiment: Antiproliferative activity against mouse BaF3 cells expressing rearranged during transfection kinase V804L-KIF5B incubated for 74 to 76 hrs by cell counting kit 8 method
BaF3 [9] = experiment: Antiproliferative activity against mouse BaF3 cells expressing rearranged during transfection kinase V804L-G810R incubated for 74 to 76 hrs by cell counting kit 8 method
[10] = biological target: Proto-oncogene tyrosine-protein kinase receptor Ret/Coiled-coil domain-containing protein 6 (Mus musculus) (UniProt P35546+D3YZP9); experiment: Inhibition of wild type rearranged during transfection kinase/CCDC6 phosphorylation in mouse BaF3 cells measured at 100 nM for 4 hrs by Western blot analysis; assay type: cell-based
BaF3 [11] = experiment: Induction of apoptosis in mouse BaF3 cells harbouring CCDC6-RET G810C assessed as viable cells measured at 100 nM for 48 hrs by Annexin V-FITC staining based Guava easyCyte flow cytometric analysis (reference value: 90.90 %); assay type: functional; details: read-out: Activity
BaF3 [12] = experiment: Induction of apoptosis in mouse BaF3 cells harbouring CCDC6-RET G810C assessed as early apoptotic cells measured at 100 nM for 48 hrs by Annexin V-FITC staining based Guava easyCyte flow cytometric analysis (reference value: 6.10 %); assay type: functional
BaF3 [13] = experiment: Induction of apoptosis in mouse BaF3 cells harbouring CCDC6-RET G810C assessed as viable cells measured at 300 nM for 48 hrs by Annexin V-FITC staining based Guava easyCyte flow cytometric analysis (reference value: 90.90 %); assay type: functional; details: read-out: Activity
BaF3 [14] = experiment: Induction of apoptosis in mouse BaF3 cells harbouring CCDC6-RET G810C assessed as early apoptotic cells measured at 300 nM for 48 hrs by Annexin V-FITC staining based Guava easyCyte flow cytometric analysis (reference value: 6.10 %); assay type: functional
BaF3 [15] = experiment: Induction of apoptosis in mouse BaF3 cells harbouring CCDC6-RET G810C assessed as late apoptotic cells measured at 300 nM for 48 hrs by Annexin V-FITC staining based Guava easyCyte flow cytometric analysis (reference value: 2.65 %); assay type: functional
BaF3 [16] = experiment: Induction of apoptosis in mouse BaF3 cells harbouring CCDC6-RET G810C assessed as necrotic cells measured at 300 nM for 48 hrs by Annexin V-FITC staining based Guava easyCyte flow cytometric analysis (reference value: 0.35 %); assay type: functional
BaF3 [17] = experiment: Induction of apoptosis in mouse BaF3 cells harbouring CCDC6-RET G810R assessed as early apoptotic cells measured at 33.3 nM for 48 hrs by Annexin V-FITC staining based Guava easyCyte flow cytometric analysis (reference value: 6.46 %); assay type: functional
BaF3 [18] = experiment: Induction of apoptosis in mouse BaF3 cells harbouring CCDC6-RET G810R assessed as late apoptotic cells measured at 33.3 nM for 48 hrs by Annexin V-FITC staining based Guava easyCyte flow cytometric analysis (reference value: 3.4 %); assay type: functional
BaF3 [19] = experiment: Induction of apoptosis in mouse BaF3 cells harbouring CCDC6-RET G810R assessed as necrotic cells measured at 33.3 nM for 48 hrs by Annexin V-FITC staining based Guava easyCyte flow cytometric analysis (reference value: 0.64 %); assay type: functional
BaF3 [20] = experiment: Induction of apoptosis in mouse BaF3 cells harbouring CCDC6-RET G810R assessed as early apoptotic cells measured at 100 nM for 48 hrs by Annexin V-FITC staining based Guava easyCyte flow cytometric analysis (reference value: 6.46 %); assay type: functional
BaF3 [21] = experiment: Induction of apoptosis in mouse BaF3 cells harbouring CCDC6-RET G810R assessed as late apoptotic cells measured at 100 nM for 48 hrs by Annexin V-FITC staining based Guava easyCyte flow cytometric analysis (reference value: 3.4 %); assay type: functional
BaF3 [22] = experiment: Induction of apoptosis in mouse BaF3 cells harbouring CCDC6-RET G810R assessed as necrotic cells measured at 100 nM for 48 hrs by Annexin V-FITC staining based Guava easyCyte flow cytometric analysis (reference value: 0.64 %); assay type: functional
BaF3 [23] = experiment: Induction of apoptosis in mouse BaF3 cells harbouring CCDC6-RET G810R assessed as late apoptotic cells measured at 300 nM for 48 hrs by Annexin V-FITC staining based Guava easyCyte flow cytometric analysis (reference value: 3.4 %); assay type: functional
BaF3 [24] = experiment: Induction of apoptosis in mouse BaF3 cells harbouring CCDC6-RET G810R assessed as necrotic cells measured at 300 nM for 48 hrs by Annexin V-FITC staining based Guava easyCyte flow cytometric analysis (reference value: 0.64 %); assay type: functional
[25] = Toxicity in CB17-SCID mouse xenografted with BaF3 cells expressing CCDC6-RET G810C assessed as loss of body weight measured at 10 to 30 mg/kg, ip qd administered for 12 days measured every 2 days; assay type: organism-based; details: in vivo, 288 h, dose 10-30 mg/kg, time 12 day
BaF3 [26] = experiment: Antitumor activity against mouse BaF3 cells harbouring CCDC6-RET G810C cells xenografted in CB17-SCID mouse assessed as reduction in tumor growth administered intraperitoneally qd administered for 12 days measured every 2 days; assay type: functional, cell-based; details: dose 10-30 mg/kg, route ip, time 12.0 day
BaF3 [27] = details: Mus musculus, dose 100.0 nM, time 4.0 hrs
BaF3 [28] = details: Mus musculus, dose 100.0 nM, time 4.0 hrs; remark: listed apart in the source
BaF3 [29] = details: Mus musculus, dose 100.0 nM, time 4.0 hrs; remark: listed apart in the source
BaF3 [30] = details: Mus musculus, dose 100.0 nM, time 4.0 hrs; remark: listed apart in the source
BaF3 [31] = details: Mus musculus, dose <= 100.0 nM, time 4.0 hrs
BaF3 [32] = details: Mus musculus, CB17-SCID, Tumor/tissue, dose 10-30 mg/kg, route ip, time 13.0 day
BaF3 [33] = details: Mus musculus, CB17-SCID, Tumor/tissue, dose 10-30 mg/kg, route ip, time 13.0 day; remark: listed apart in the source

Chain of Proto-oncogene tyrosine-protein kinase receptor Ret/Coiled-coil domain-containing protein 6 (Mus musculus) (D3YZP9 whole entry, looked up, the tested form may be a part): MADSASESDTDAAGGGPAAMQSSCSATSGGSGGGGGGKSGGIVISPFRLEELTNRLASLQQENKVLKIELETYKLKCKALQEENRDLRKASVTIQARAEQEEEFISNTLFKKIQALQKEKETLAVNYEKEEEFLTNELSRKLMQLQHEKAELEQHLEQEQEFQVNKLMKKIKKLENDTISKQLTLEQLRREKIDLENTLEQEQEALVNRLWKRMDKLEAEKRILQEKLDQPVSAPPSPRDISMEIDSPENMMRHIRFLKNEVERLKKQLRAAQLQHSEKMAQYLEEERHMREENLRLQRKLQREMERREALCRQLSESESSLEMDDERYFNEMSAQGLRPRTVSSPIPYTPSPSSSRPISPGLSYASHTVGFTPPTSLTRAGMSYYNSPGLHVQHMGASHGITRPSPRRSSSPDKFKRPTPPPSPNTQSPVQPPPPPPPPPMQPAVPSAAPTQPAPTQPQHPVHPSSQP
Chain of Proto-oncogene tyrosine-protein kinase receptor Ret/Coiled-coil domain-containing protein 6 (Mus musculus) (P35546 whole entry, looked up, the tested form may be a part): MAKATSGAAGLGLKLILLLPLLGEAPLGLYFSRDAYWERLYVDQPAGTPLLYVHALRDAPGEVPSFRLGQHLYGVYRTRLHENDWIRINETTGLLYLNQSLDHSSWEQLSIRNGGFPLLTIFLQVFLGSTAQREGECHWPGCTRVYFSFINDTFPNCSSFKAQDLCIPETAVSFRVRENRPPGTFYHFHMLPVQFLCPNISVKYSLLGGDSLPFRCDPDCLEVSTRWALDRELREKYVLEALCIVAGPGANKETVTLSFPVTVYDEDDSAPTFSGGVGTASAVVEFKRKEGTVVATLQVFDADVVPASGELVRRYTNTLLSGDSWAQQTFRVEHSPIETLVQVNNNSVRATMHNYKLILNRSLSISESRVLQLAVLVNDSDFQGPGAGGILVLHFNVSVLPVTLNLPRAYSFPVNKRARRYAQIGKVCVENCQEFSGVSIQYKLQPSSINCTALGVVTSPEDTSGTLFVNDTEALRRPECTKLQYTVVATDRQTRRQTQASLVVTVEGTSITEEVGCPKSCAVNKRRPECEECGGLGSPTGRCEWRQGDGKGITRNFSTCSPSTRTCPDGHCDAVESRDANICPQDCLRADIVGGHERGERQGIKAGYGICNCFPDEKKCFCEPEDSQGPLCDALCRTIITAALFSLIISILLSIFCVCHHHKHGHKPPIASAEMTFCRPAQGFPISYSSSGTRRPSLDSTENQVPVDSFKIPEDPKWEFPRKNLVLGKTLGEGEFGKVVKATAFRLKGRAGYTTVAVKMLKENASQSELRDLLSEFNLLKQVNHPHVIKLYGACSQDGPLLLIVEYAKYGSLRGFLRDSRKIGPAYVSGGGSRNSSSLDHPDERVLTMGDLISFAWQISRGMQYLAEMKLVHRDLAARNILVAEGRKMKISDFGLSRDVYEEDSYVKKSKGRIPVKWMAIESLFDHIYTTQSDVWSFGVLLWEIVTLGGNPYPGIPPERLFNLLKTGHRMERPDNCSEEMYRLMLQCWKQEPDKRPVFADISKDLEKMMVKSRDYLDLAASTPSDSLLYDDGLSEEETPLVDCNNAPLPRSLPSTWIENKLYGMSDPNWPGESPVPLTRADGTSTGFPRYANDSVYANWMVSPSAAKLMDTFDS

IC50 (BaF3 [2]): 0.0056 µM | IC50 (BaF3 [3]): 0.0244 µM | IC50 (BaF3 [4]): 0.0154 µM | IC50 (BaF3 [5]): 0.0532 µM | IC50 (BaF3 [6]): 0.0061 µM | IC50 (BaF3 [7]): 0.0531 µM | IC50 (BaF3 [8]): 0.0473 µM | IC50 (BaF3 [9]): 0.12 µM | inhibition [10]: Active
SMILES: COc1cc2nccc(Oc3ccc(Nc4nn(C)cc4C(=O)NC45CC6CC(CC(C6)C4)C5)c(F)c3)c2cc1C(N)=O
Activity [1]: Non-Toxic | viability at 0.1 µM (BaF3 [11]): 80.2% | Activity (BaF3 [12]): 17.19% | viability at 0.3 µM (BaF3 [13]): 43.1% | Activity (BaF3 [14]): 53.4% | Activity (BaF3 [15]): 3.08% | Activity (BaF3 [16]): 0.41% | Activity (BaF3 [17]): 6.47% | Activity (BaF3 [18]): 2.25% | Activity (BaF3 [19]): 0.17% | Activity (BaF3 [20]): 9.4% | Activity (BaF3 [21]): 1.8% | Activity (BaF3 [22]): 0.23% | Activity (BaF3 [23]): 3.21% | Activity (BaF3 [24]): 0.24% | Activity [25]: Non-Toxic | Activity (BaF3 [26]): Dose-Dependent Effect | inhibition (BaF3 [27]): Active | inhibition (BaF3 [28]): Active | inhibition (BaF3 [29]): Active | inhibition (BaF3 [30]): Active | inhibition (BaF3 [31]): Dose-Dependent Effect | inhibition (BaF3 [32]): Active | inhibition (BaF3 [33]): Active
